Bridge positions count the residues as written; N and C are the ends. Peptide text beside a SMILES is read from it.
Tests used:
NbALFA = experiment: SPR measurements of NbALFA binding (Biacore T200, multi cycle kinetics, 1:1 binding model); settings: for Kd / ka / kd: 25° C., HBS-EP+ buffer, biotinylated NbALFA captured
Protocol: Affinity measurements were performed using a Biacore T200 (GE Healthcare, Biacore T200 control Software 3.2). […] A freshly docked Biotin CAPture chip was rehydrated overnight in the instrument (standby mode). […] The immobilization of the Nanobody was done for 180 s at 10 μL/min on FC2 followed by quenching of unbound streptavidin by 0.1 mM biocytin for 60 s and 30 μL/min on both flow cells. […] After each cycle, the surface was regenerated for 120 s with 10 μL/min using regeneration solution. All measurements were performed at 25° C. using HBS-EP+ buffer (Cytiva Europe, Cat. no BR100669). The control responses from FC1 were subtracted by the sample measurement in FC2 (FC2−FC1) followed by subtraction of the 0 nM blank injection. Resulting binding curves of this multi cycle kinetic experiment were fitted using the Biacore T200 Evaluation Software 3.2 and a 1:1 binding model.

anti-ALFA VHH = experiment: binding affinity to the anti-ALFA VHH (log(agonist) vs. response, variable slope); settings: for LogEC50: best-fit values, log(agonist) vs. response, variable slope; for EC50: binding to anti-ALFA VHH
[1] = Plasma stability, human plasma; settings: for remaining at 24 h, 10 µM / remaining at 2 h, 10 µM / remaining at 6 h, 10 µM / half-life: human; for remaining at 24 h, 10 µM: Li-heparin plasma; for remaining at 2 h, 10 µM / remaining at 6 h, 10 µM: human Li-heparin plasma; for half-life: plasma
Protocol: (§1) Plasma stability measurements were performed by spiking 5 μl of a 1 mM compound stock solution in DMSO into 495 μl of human or mouse Li-heparin plasma (Innovative Research, Cat. No, IPLALIH5OML (human) and IMS-BC-N (Balb C mouse). The spiked plasma was distributed in 50 μl aliquots into capped PCR tubes for incubation at 37° C. At each time point (0, 2, 6, 24 hours*) 3*aliquots were withdrawn from the incubator. Enzymatic reactions were quenched directly after withdrawal by adding 100 μl of acetonitrile/formic acid=99/1 (v/v). Quenched samples were stored at ambient temperature until the end of the incubation period (24 hrs*). After centrifugation, the supernatant was transferred into fresh vials and analyzed by LC-MS/MS in ESI positive mode (Waters ACQUITY UPLC I-Class System (SM-FTN) with Xevo TQD triple quadrupole mass spectrometer with control software Waters MassLynx). […] Values below the limit of quantification (0.1 μM) and outliers of triplicate results were excluded from further calculations. An exponential regression curve was fitted onto the concentration results. Half-life times were calculated from the slope of the regression curve (t1/2=ln(2)/slope).
(§2) For some samples, as indicated below, the incubation time was 6 hours. The 24 hour data was measured in triplicates whereas the 6 hour data was measured in duplicates.

[2] = Plasma stability, mouse plasma; settings: for remaining at 2 h, 10 µM / remaining at 6 h, 10 µM / remaining at 24 h, 10 µM: Balb C, Li-heparin plasma; for remaining at 2 h, 10 µM / remaining at 6 h, 10 µM / remaining at 24 h, 10 µM / half-life: mouse; for half-life: plasma
Protocol: as §1, §2

[3] = human plasma, 37° C., timepoint 0 h
[4] = human plasma, 37° C., timepoint 0 h, calibration range 0.1 to 10 μM
[5] = human plasma, 37° C., timepoint 2 h
[6] = human plasma, 37° C., timepoint 6 h
[7] = human plasma, 37° C., timepoint 24 h
[8] = Half-life time, human plasma, 37° C., incubation 24 h (triplicates) or 6 h (duplicates)
[9] = mouse plasma, 37° C., timepoint 0 h
[10] = mouse plasma, 37° C., timepoint 0 h, calibration range 0.1 to 10 μM
[11] = mouse plasma, 37° C., timepoint 2 h
[12] = mouse plasma, 37° C., timepoint 6 h
[13] = mouse plasma, 37° C., timepoint 24 h
[14] = Flag (half-life, assay exceeded), mouse plasma, 37° C.
[15] = Half-life time, mouse plasma, 37° C., incubation 24 h (triplicates) or 6 h (duplicates)

Structure (SMILES): CC(=O)N[C@@H](CO)C(=O)N[C@@H](CCCNC(=N)N)C(=O)N[C@@H](CC(C)C)C(=O)N[C@@H](CCC(=O)O)C(=O)N[C@H]1CCC(=O)NCCCC[C@@H](C(=O)N[C@@H](CCCNC(=N)N)C(=O)N[C@@H](CC(C)C)C(=O)N[C@H](C(=O)N[C@@H](CCC(=O)O)C(N)=O)[C@@H](C)O)NC(=O)[C@H](CCCNC(=N)N)NC(=O)[C@H](CC(C)C)NC(=O)[C@H](CCC(=O)O)NC1=O [SD15194, Ac-Ser-Arg-Leu-Glu-(cyclo5)Glu-Glu-Leu-Arg-(cyclo9)Lys-Arg-Leu-Thr-Glu-NH2] (Ac-SRLEEELRKRLTE-NH2; lactam 5-9)
- Kd (NbALFA): 0.0376 nM
- ka (NbALFA): 1.78e+07 M⁻¹ s⁻¹
- kd (NbALFA): 0.00067 s⁻¹
- binding with respect to NbALFA (NbALFA; in words): very good binding
- LogEC50 (anti-ALFA VHH): 0.7763
- EC50 (anti-ALFA VHH): 5.97 nM
- EC50 (anti-ALFA VHH; listed as Ac_5E-9Cyclo_ALFA): 6 nM
- Half-life time ([1]; human plasma, 37° C., incubation 24 h (triplicates) or 6 h (duplicates), listed as SD 00015194): 33.48 h
- Conc. (% of T0) [1, 3]: 100.0 % of T0
- Mean (compound concentration) [1, 3]: 2.26
- Tube 2 (compound concentration) [1, 3]: 2.271
- Tube 3 (compound concentration) [1, 3]: 2.302
- Tube 1 (compound concentration) [1, 4]: 2.215
- Mean (compound concentration) [1, 5]: 2.09
- Tube 1 (compound concentration) [1, 5]: 2.086
- Tube 2 (compound concentration) [1, 5]: 2.052
- Tube 3 (compound concentration) [1, 5]: 2.117
- Mean (compound concentration) [1, 6]: 1.99
- Tube 1 (compound concentration) [1, 6]: 1.884
- Tube 2 (compound concentration) [1, 6]: 2.057
- Tube 3 (compound concentration) [1, 6]: 2.041
- Mean (compound concentration) [1, 7]: 1.36
- Tube 1 (compound concentration) [1, 7]: 1.322
- Tube 2 (compound concentration) [1, 7]: 1.377
- Tube 3 (compound concentration) [1, 7]: 1.368
- remaining at 24 h, 10 µM [1]: 59.9%
- remaining at 2 h, 10 µM [1]: 92.1%
- remaining at 6 h, 10 µM [1]: 88.1%
- half-life ([1]; Flag (half-life, assay exceeded), human plasma, 37° C.): > 24 h
- half-life [1, 8]: > 24 h
- remaining at 2 h, 10 µM [2]: 95.5%
- remaining at 6 h, 10 µM [2]: 85.4%
- remaining at 24 h, 10 µM [2]: 62.3%
- Half-life time ([2]; mouse plasma, 37° C., incubation 24 h (triplicates) or 6 h (duplicates), listed as SD 00015194): 35.69 h
- Conc. (% of T0) [2, 9]: 100.0 % of T0
- Mean (compound concentration) [2, 9]: 2.57
- Tube 2 (compound concentration) [2, 9]: 2.488
- Tube 3 (compound concentration) [2, 9]: 2.617
- Tube 1 (compound concentration) [2, 10]: 2.606
- Mean (compound concentration) [2, 11]: 2.46
- Tube 1 (compound concentration) [2, 11]: 2.526
- Tube 2 (compound concentration) [2, 11]: 2.467
- Tube 3 (compound concentration) [2, 11]: 2.373
- Mean (compound concentration) [2, 12]: 2.20
- Tube 1 (compound concentration) [2, 12]: 2.178
- Tube 2 (compound concentration) [2, 12]: 2.256
- Tube 3 (compound concentration) [2, 12]: 2.154
- Mean (compound concentration) [2, 13]: 1.60
- Tube 1 (compound concentration) [2, 13]: 1.543
- Tube 2 (compound concentration) [2, 13]: 1.638
- Tube 3 (compound concentration) [2, 13]: 1.62
- half-life [2, 14]: > 24 h
- half-life [2, 15]: > 24 h

Structure (SMILES): CC(=O)N[C@@H](CO)C(=O)N[C@@H](CCCNC(=N)N)C(=O)N[C@@H](CC(C)C)C(=O)N[C@@H](CCC(=O)O)C(=O)N[C@H]1CC(=O)NCCCC[C@@H](C(=O)N[C@@H](CCCNC(=N)N)C(=O)N[C@@H](CC(C)C)C(=O)N[C@H](C(=O)N[C@@H](CCC(=O)O)C(N)=O)[C@@H](C)O)NC(=O)[C@H](CCCNC(=N)N)NC(=O)[C@H](CC(C)C)NC(=O)[C@H](CCC(=O)O)NC1=O [SD15196, Ac-Ser-Arg-Leu-Glu-(cyclo5)Asp-Glu-Leu-Arg-(cyclo9)Lys-Arg-Leu-Thr-Glu-NH2] (Ac-SRLEDELRKRLTE-NH2; lactam 5-9)
- Kd (NbALFA): 0.436 nM
- ka (NbALFA): 1.81e+07 M⁻¹ s⁻¹
- kd (NbALFA): 0.0079 s⁻¹
- LogEC50 (anti-ALFA VHH): 2.576
- EC50 (anti-ALFA VHH): 377 nM
- Conc. (% of T0) [1, 3]: 100.0 % of T0
- Mean (compound concentration) [1, 3]: 2.42
- Tube 2 (compound concentration) [1, 3]: 2.424
- Tube 3 (compound concentration) [1, 3]: 2.518
- Tube 1 (compound concentration) [1, 4]: 2.314
- Mean (compound concentration) [1, 5]: 2.21
- Tube 1 (compound concentration) [1, 5]: 2.188
- Tube 2 (compound concentration) [1, 5]: 2.234
- Tube 3 (compound concentration) [1, 5]: 2.212
- Mean (compound concentration) [1, 6]: 1.73
- Tube 1 (compound concentration) [1, 6]: 1.843
- Tube 2 (compound concentration) [1, 6]: 1.803
- Tube 3 (compound concentration) [1, 6]: 1.545
- Mean (compound concentration) [1, 7]: 0.77
- Tube 1 (compound concentration) [1, 7]: 0.844
- Tube 2 (compound concentration) [1, 7]: 0.761
- Tube 3 (compound concentration) [1, 7]: 0.694
- remaining at 24 h, 10 µM ([1]; Conc. (% of T0), human plasma, 37° C., timepoint 24 h): 31.7%
- remaining at 2 h, 10 µM ([1]; Conc. (% of T0), human plasma, 37° C., timepoint 2 h): 91.4%
- remaining at 6 h, 10 µM ([1]; Conc. (% of T0), human plasma, 37° C., timepoint 6 h): 71.5%
- half-life [1, 8]: 14.5 h
- remaining at 2 h, 10 µM [2]: 94.3%
- remaining at 6 h, 10 µM [2]: 80.5%
- remaining at 24 h, 10 µM [2]: 52.5%
- Conc. (% of T0) [2, 9]: 100.0 % of T0
- Mean (compound concentration) [2, 9]: 2.42
- Tube 2 (compound concentration) [2, 9]: 2.424
- Tube 3 (compound concentration) [2, 9]: 2.497
- Tube 1 (compound concentration) [2, 10]: 2.336
- Mean (compound concentration) [2, 11]: 2.28
- Tube 1 (compound concentration) [2, 11]: 2.277
- Tube 2 (compound concentration) [2, 11]: 2.329
- Tube 3 (compound concentration) [2, 11]: 2.237
- Mean (compound concentration) [2, 12]: 1.95
- Tube 1 (compound concentration) [2, 12]: 1.96
- Tube 2 (compound concentration) [2, 12]: 2.008
- Tube 3 (compound concentration) [2, 12]: 1.874
- Mean (compound concentration) [2, 13]: 1.27
- Tube 1 (compound concentration) [2, 13]: 1.334
- Tube 2 (compound concentration) [2, 13]: 1.273
- Tube 3 (compound concentration) [2, 13]: 1.201
- half-life [2, 14]: > 24 h
- half-life [2, 15]: 26.2 h

Reference: US20250154202A1, “CYCLIC EPITOPE TAGS” (BIONTECH SE, priority 2022, published 2025)
